Results: EPA's ToxValDB 9.5 (doi:10.2903/j.efsa.2010.1913)

Key:
[1] = test system: Canidae; conditions: oral, Dog Other, organ weight
[2] = test system: Cyprinus carpio; conditions: acute; duration: 96 hours; mortality
[3] = test system: Oncorhynchus mykiss
[4] = test system: Rattus norvegicus
[5] = test system: Coturnix japonica
[6] = test system: Colinus virginianus; conditions: acute; oral; mortality
[7] = test system: Mus musculus; conditions: oral
[8] = test system: Apis mellifera; conditions: acute; oral; unspecified; mortality
[9] = test system: Daphnia magna; conditions: chronic/long-term; duration: 21 days; reproduction
[10] = test system: Tagia sp.; conditions: acute; duration: 14 days; mortality
[11] = test system: Aphidius rhopalosiphi; experiment: LR50; higher = less toxic; conditions: not reported; mortality
[12] = reproduction developmental, reproduction

For CCNC(=O)[C@@H](C)OC(=O)Nc1ccccc1 [Carbetamide], the NOAEL ([1]; chronic, duration: 1 years) was 30 mg/kg-day, the NOAEL ([1]; subchronic, duration: 90 days) was 30 mg/kg-day and the LC50 [2] was over 100 µg/mL. It also gave an LC50 ([3]; acute, duration: 96 hours, mortality) of over 100 µg/mL, an NOEC ([3]; chronic/long-term, duration: 21 days, growth) of over 100 mg/L and an LD50 ([4]; acute, oral, mortality) of over 2000 mg/kg-day. The NOAEL ([4]; chronic, duration: 2 years, oral, histopathology: nonneoplastic) was 6 mg/kg-day, the NOAEL [4, 12] was 208 mg/kg-day and the NOAEL ([4]; subchronic, duration: 90 days, oral, histopathology: nonneoplastic) was 12.5 mg/kg-day. The LC50 ([5]; acute, oral, diet, mortality) was over 1040 mg/kg-day, the NOEC [5, 12] was 169 mg/kg-day and the LD50 [6] was over 2000 mg/kg-day. The LD50 ([7]; acute, mortality) was 1720 mg/kg-day, the NOEL ([7]; chronic, duration: 104 weeks, histopathology: neoplastic) was 21 mg/kg-day and the LD50 [8] was over 63.2 µg/piece. It also gave an NOEC [9] of 1 mg/L, an LC50 [10] of 660 mg/kg and an LR50 [11] of over 3020 g/ha.
